We go through one compound from patent US20020165233A1, “Quinoxaline containing medicaments for post exposure prophylaxis of an HIV infection” (priority 1999, published 2002).

SMILES strings stand for the structures.

Details of the data set: species or system rhesus monkeys. The settings on record: rhesus monkey, in vivo, sc, 15 mg/kg. The method, then:
Nine rhesus monkeys (male, 2 years old, 2-3 kg) were seronegative for SIV, Simian T cell Leukemia Virus (STLV), B virus and Type D retroviruses. 15 mg/kg body weight of COMPOUND A was subcutaneously administered into animals twice a day (12 h interval) for 28 d. Animals were divided into three groups. All animals were intravenously administered with 100 TCID50 of RT-SHIV The first group consisted of three animals treated with COMPOUND A from 8 h post exposure for 28 d. The second group of animals was treated with COMPOUND A from 24 h post exposure for 28 d. The third group (control) received the solvent that was used to dissolve COMPOUND A (PEG400:glycerol:water=[…]) from 8 h post exposure for 28 d.

For the compound `CC[C@H]1C(=O)Nc2ccc(F)cc2N1C(=O)OC(C)C` [Compound A, (3S)-ethyl-6-fluoro-4-isopropyloxycarbonyl-3,4-dihydroquinoxalin-2(1H)-one], the adverse effect entry is given as “without any adverse effect”.
